tested on: DLBCL xenograft; test: combination drug testing in a DLBCL xenograft; format: in vivo; conditions: initial experiment in a DLBCL xenograft

**Q.** Which “interaction with PCI-32765 in combination” value (“interaction” for short) does the source give for CC(C)C[C@H](NC(=O)[C@H](Cc1ccccc1)NC(=O)c1cnccn1)B(O)O [bortezomib] here?
**A.** Its value is “greater than additivity”.

tested on: cell lines; test: combination of PCI-32765 with other drugs in cell lines; format: cell-based; conditions: not given

**Q.** CN(C)Cc1c(C(=O)NCCOc2ccc(C(=O)NO)cc2)oc2ccccc12 [3-((dimethylamino)methyl)-N-(2-(4-(hydroxycarbamoyl)phenoxy)ethyl)benzofuran-2-carboxamide] was tested. Which “interaction” value did it give?
**A.** The value was “weak synergy”.

**Q.** Which “interaction” value does the source give for COc1cc(Nc2ncc(F)c(Nc3ccc4c(n3)NC(=O)C(C)(C)O4)n2)cc(OC)c1OC [Compound R-406] here?
**A.** Its value is “weak synergy”.

**Q.** With Cn1c(CCCC(=O)O)nc2cc(N(CCCl)CCCl)ccc21 [bendamustine] as the molecule, how does the “interaction” value read?
**A.** The value was “weak synergy”.

**Q.** For CC(C)C[C@H](NC(=O)[C@H](Cc1ccccc1)NC(=O)c1cnccn1)B(O)O [bortezomib], which “interaction” value is on record?
**A.** Its value is “weak synergy”.

**Q.** How did the “interaction” value turn out when N.N.O=C([O-])C1(C(=O)[O-])CCC1.[Pt+2] [carboplatin] was run?
**A.** Its value is “additivity”.

**Q.** Which “interaction” value does the source give for COc1cccc2c1C(=O)c1c(O)c3c(c(O)c1C2=O)C[C@@](O)(C(=O)CO)C[C@@H]3O[C@H]1C[C@H](N)[C@H](O)[C@H](C)O1 [doxorubicin] here?
**A.** The value was “additivity”.

**Q.** Nc1ccn([C@@H]2O[C@H](CO)[C@@H](O)C2(F)F)c(=O)n1 [gemcitabine] was tested. Which “interaction” value did it give?
**A.** The value was “weak synergy”.

**Q.** With Nc1cccc2c1CN(C1CCC(=O)NC1=O)C2=O (stereo not shown) [lenalidomide] as the molecule, how does the “interaction” value read?
**A.** The value was “weak synergy”.

**Q.** Which “interaction” value does the source give for CNC(=O)c1cc(Oc2ccc(NC(=O)Nc3ccc(Cl)c(C(F)(F)F)c3)cc2)ccn1 [sorafenib] here?
**A.** The value was “weak synergy”.

**Q.** For CC(=O)O[C@H]1C(=O)[C@@]2(C)[C@H]([C@H](OC(=O)c3ccccc3)[C@]3(O)C[C@H](OC(=O)[C@H](O)[C@@H](NC(=O)c4ccccc4)c4ccccc4)C(C)=C1C3(C)C)[C@]1(OC(C)=O)CO[C@@H]1C[C@@H]2O [taxol], which “interaction” value is on record?
**A.** The value was “additivity”.

**Q.** For CO[C@H]1C[C@@H]2CC[C@@H](C)[C@@](O)(O2)C(=O)C(=O)N2CCCC[C@H]2C(=O)O[C@H]([C@H](C)C[C@@H]2CC[C@@H](OC(=O)C(C)(CO)CO)[C@H](OC)C2)CC(=O)[C@H](C)/C=C(\C)[C@@H](O)[C@@H](OC)C(=O)[C@H](C)C[C@H](C)/C=C/C=C/C=C/1C [temsirolimus], which “interaction” value is on record?
**A.** Its value is “additivity”.

**Q.** With CC[C@]1(O)C[C@H]2CN(CCc3c([nH]c4ccccc34)[C@@](C(=O)OC)(c3cc4c(cc3OC)N(C=O)[C@H]3[C@@](O)(C(=O)OC)[C@H](OC(C)=O)[C@]5(CC)C=CCN6CC[C@]43[C@@H]65)C2)C1 [vincristine] as the molecule, how does the “interaction” value read?
**A.** Its value is “additivity”.

Source: patent US20170266186A1, “USE OF INHIBITORS OF BRUTON'S TYROSINE KINASE (BTK)” (Pharmacyclics LLC, priority 2011, published 2017)
